# Key:
# [1] = system: tremor induced by tacrine; design: method as in PMID 35184706; details: cited from earlier work
# [2] = system: neuronal injury model induced by 6-hydroxydopamine; design: method as in PMID 35184706; details: cited from earlier work
# [3] = system: catalepsy induced by haloperidol; design: method as in PMID 35184706; details: in vivo model of Parkinson's disease; cited from earlier work
# [4] = molecular target: T1, A2BAR (Homo sapiens, UniProt P29275); details: reference compound ANR 94, reference printed at end of table row; cited from earlier work
# T1 construct: expressed in transfected cells
# T1 sequence (P29275 1-332): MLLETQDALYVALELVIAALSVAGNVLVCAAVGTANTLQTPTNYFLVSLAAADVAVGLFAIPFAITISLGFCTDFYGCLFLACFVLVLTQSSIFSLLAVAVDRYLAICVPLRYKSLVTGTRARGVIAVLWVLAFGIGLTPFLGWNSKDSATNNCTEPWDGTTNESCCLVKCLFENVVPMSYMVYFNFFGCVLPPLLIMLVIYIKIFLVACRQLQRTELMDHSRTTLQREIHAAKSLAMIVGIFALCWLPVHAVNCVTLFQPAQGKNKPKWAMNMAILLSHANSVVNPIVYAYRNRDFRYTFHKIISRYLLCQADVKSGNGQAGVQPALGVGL
# [5] = molecular target: T2, human recombinant A3AR (Homo sapiens, UniProt P0DMS8); details: reference compound ANR 94; cited from earlier work
# T2 construct: expressed in transfected cells; membrane preparation
# T2 sequence (P0DMS8 1-318): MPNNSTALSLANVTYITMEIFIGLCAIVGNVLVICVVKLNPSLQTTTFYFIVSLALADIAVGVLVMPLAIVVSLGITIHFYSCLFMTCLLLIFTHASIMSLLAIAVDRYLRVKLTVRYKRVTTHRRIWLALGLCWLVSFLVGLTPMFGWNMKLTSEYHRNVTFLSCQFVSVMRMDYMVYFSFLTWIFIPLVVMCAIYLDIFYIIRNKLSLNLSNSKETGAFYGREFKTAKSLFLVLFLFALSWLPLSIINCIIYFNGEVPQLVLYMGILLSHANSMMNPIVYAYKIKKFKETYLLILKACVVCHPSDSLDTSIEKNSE
# [6] = system: BV-2 murine microglial cells; experiment: RT-PCR expression of inflammatory mediators in LPS-activated BV-2 cells; assay type: cell-based; details: 10 nM for 24 h, then 100 ng/mL LPS 24 h
# Experimental: BV-2 cells were treated with 13 or ANR 94 (10 nM) and activated with 100 ng/mL LPS for 24 h. Total RNA was isolated, and proinflammatory cytokine and enzyme expressions were measured using RT-PCR (Figure 5).
# Cell Cultures and Treatments: BV-2 murine microglial cells (a gift from Prof. Elisabetta Blasi of the University of Modena and Reggio Emilia, Modena, Italy) were maintained at 37 °C and 5% CO2 in a humidified incubator and grown in DMEM supplemented with 10% (v/v) low-endotoxin fetal bovine serum (Euroclone—Milan, Italy), 2 mM L-glutamine, 50 U/mL penicillin, and 50 μg/mL streptomycin (Sigma-Aldrich–Merck, Milan, Italy). Cells were seeded at 50,000 cells/mL in 96-well tissue culture plates for the viability assay, in 6-well tissue culture plates for the Griess assay and RT-PCR assay. BV-2 cells were treated for 24 h with ANR 94 or 13 at different concentrations and then exposed to LPS (100 ng/mL; Sigma-Aldrich–Merck) for a further 24 h.
# Real-Time Polymerase Chain Reaction (PCR): At the end of the experiments, total RNA was extracted by BV-2 cells using RNeasy Mini Kit (QIAGEN GmbH, Hilden, Germany). RNA concentraion and quality were measured on a NanoVue Spectrophotometer (GE Healthcare, Milano, Italy). iScript cDNA Synthesis Kit (Bio-Rad, Hercules, CA, USA) was used to synthesize cDNA starting from the extracted RNA, following the supplier’s instructions. PCR was performed by adding 2.5 μL (12.5 ng) of cDNA, 5 μL SsoAdvanced Universal SYBR Green Supermix (Bio-Rad), and 0.5 μL (500 nM) of each primer (Table 2) to a PCR tube. cDNA amplification was started at 95 °C for 30 s to activate the polymerase, followed by 40 cycles of 5 s at 95 °C and 30 s at 60 °C. Normalized expression levels were calculated relative to the control cells according to the 2^−ΔΔCT method.
# [7] = system: murine model of PD; design: method as in PMID 19951715; details: cited from earlier work
# [8] = molecular target: T3, human recombinant A2AAR (Homo sapiens, UniProt P29274); experiment: Radioligand binding at human A2AAR ([3H]NECA displacement, CHO cell membranes); details: ratio of Ki values
# T3 construct: expressed in transfected cells; membrane preparation
# Experimental: Most of the compounds were also evaluated at A2BARs in a functional study using the GloSensor cAMP assay. […] In the case of A2BARs, Ki-values were calculated from IC50-values determined by the inhibition of NECA-stimulated adenylyl cyclase activity.
# Preparation of membranes: Cell membranes for binding assays were prepared mechanically detaching the cells from the petri and suspending them in a cold hypotonic buffer (5 mM Tris/HCl, 2 mM EDTA, pH 7.4). The cell suspension was homogenized (Ultra-Turrax, 2 × 15 s at maximum speed) and the homogenate centrifuged for 10 min (4 °C) to 1000× g. […] The amount of the protein suspension was determined according to the […] using the BCA Protein Assay Kit (Pierce), frozen in liquid nitrogen, and stored at −80 °C.
# Binding assays: The dissociation constants of the radioligand (KD) were calculated through saturation assays, while the dissociation constants of the compounds under study (Ki) were determined by competition experiments. All binding data were calculated by nonlinear regression curves using the software GraphPad Prism 5 (GraphPad Software, San Diego, CA, USA). The increasing concentrations of the radioligand saturation binding ([^3H]-CCPA for the A1 receptor subtype, [^3H]-NECA for the A2A receptor subtype, and [^3H]-HEMADO for the A3 receptor) subtype were incubated in a total volume of 250 μL containing 0.2 U/mL of Ado deaminase (ADA) and 12 micrograms of membrane proteins in the specific buffer. In competition experiments for the A1 receptor subtype, each compound was added at increasing concentrations, to the well containing 1 nM of [^3H]-CCPA, to a final volume of 200 μL. The samples were left to incubate for 3 h at room temperature, filtered in a filter 96-well plate (UniFilter GF/C, Perkin-Elmer Life and Analytical Science, Boston, MA) using the FilterMate Cell Harvester (Perkin-Elmer), and washed 3 times with cold distilled water. After drying the filter plate at 40 °C for 30′, they 20 μL of scintillating liquid (Microscint-20, Perkin-Elmer) was added to each well, and then the radioactivity was quantized with the MicroBeta2 Plate Counter (Perkin-Elmer). The conditions for binding experiments at A2A and A3 receptor subtypes were essentially the same as for the A1AR using [^3H]-NECA (N-ethylcarboxyamideAdo) at a concentration of 10 nM and [^3H]-HEMADO (2-(1-hexyne)-N^6-methylAdo) at a concentration of 1 nM as radioligands, respectively. The samples were incubated with 12 micrograms of protein for 3 h at room temperature and filtered as described above.
# The non-specific binding was determined in the presence of 1 mM theophylline for the A1AR, or 100 µM R-PIA (N^6-(1-methyl-2-phenylethyl)Ado) for the A2A and A3 receptors.
# [9] = molecular target: T4, human recombinant A1AR (Homo sapiens, UniProt P30542); details: reference compound ANR 94, reference printed at end of table row; cited from earlier work
# T4 construct: expressed in transfected cells; membrane preparation
# T4 sequence (P30542 1-326): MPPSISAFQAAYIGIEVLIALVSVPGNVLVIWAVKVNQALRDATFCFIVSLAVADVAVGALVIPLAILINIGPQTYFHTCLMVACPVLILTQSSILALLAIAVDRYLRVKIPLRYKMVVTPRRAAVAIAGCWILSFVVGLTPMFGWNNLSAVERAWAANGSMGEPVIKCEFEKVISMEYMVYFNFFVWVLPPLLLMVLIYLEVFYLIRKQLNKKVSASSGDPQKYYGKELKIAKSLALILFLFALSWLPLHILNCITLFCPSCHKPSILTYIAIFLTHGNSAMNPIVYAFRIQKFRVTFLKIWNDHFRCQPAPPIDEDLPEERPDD
# [10] = system: rats sensitized to L-DOPA; design: method as in PMID 35184706; details: cited from earlier work
# T3 sequence (P29274 whole entry): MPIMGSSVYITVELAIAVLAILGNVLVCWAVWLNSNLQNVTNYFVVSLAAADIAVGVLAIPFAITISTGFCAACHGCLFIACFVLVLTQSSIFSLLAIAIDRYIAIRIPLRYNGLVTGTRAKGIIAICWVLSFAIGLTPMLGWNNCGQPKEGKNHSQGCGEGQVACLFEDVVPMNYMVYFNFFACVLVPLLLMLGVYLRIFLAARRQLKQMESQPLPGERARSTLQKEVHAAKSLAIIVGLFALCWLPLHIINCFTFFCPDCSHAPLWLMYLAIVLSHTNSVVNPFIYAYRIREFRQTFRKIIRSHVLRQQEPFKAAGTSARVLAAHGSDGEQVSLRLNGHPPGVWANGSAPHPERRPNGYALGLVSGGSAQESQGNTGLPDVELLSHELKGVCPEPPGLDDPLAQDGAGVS
smiles,measurement,setting,value
"CCOc1nc2c(N)ncnc2n1CC [ANR 94, 9-ethyl-8-ethoxyadenine]",intensity of the tremor induced by tacrine,[1],good efficacy in lowering the intensity of the tremor
same,motor deficit,[2],reducing the motor deficit
same,effect on catalepsy induced by haloperidol,[3],reversed the catalepsy induced by haloperidol
same,Ki,[4],> 30 µM
same,Ki,[5],21 µM
same,COX-2 mRNA expression vs LPS,[6],only able to significantly reduce the expression of IL-1β
same,IL-1β mRNA expression vs LPS,[6],significantly reduce the expression of IL-1β
same,IL-6 mRNA expression vs LPS,[6],only able to significantly reduce the expression of IL-1β
same,iNOS mRNA expression vs LPS,[6],only able to significantly reduce the expression of IL-1β
same,microglia activation,[7],ability to reduce microglia activation
same,selectivity A1/A2A,[8],52
same,selectivity A2B/A2A,[8],> 652
same,selectivity A3/A2A,[8],457
same,Ki,[9],2.4 µM
same,contralateral turning behavior,[10],induced contralateral turning behavior

# Source: paper PMC9032385, “A2A Adenosine Receptor Antagonists: Are Triazolotriazine and Purine Scaffolds Interchangeable?” (Molecules, 2022)
